{"source": "patent US20230303474A1", "about": "“TOTAL SYNTHESES OF SPECIALIZED PRO-RESOLVING MEDIATORS (SPMS), STRUCTURAL ISOMERS AND STRUCTURAL ANALOGS” (UNIVERSITÉ LAVAL, priority 2020, published 2023)", "origin": "cited, not measured here", "tested_on": "skeletal muscle cells", "details": "background statement citing ref. 19"}
{"smiles": "CC/C=C\\C[C@H](O)/C=C/C=C\\C=C\\[C@@H](O)C/C=C\\C/C=C\\CCC(=O)O", "note": "[PDX, (4Z,7Z,10S,11E,13Z,15E,17S,19Z)-10,17-dihydroxydocosa-4,7,11,13,15,19-hexaenoic acid]", "values": [{"measurement": "release of the prototypic myokine interleukin-6 (IL-6)", "result": "induce the release"}]}
{"smiles": "CC/C=C\\C[C@H](O)\\C=C/C=C/C=C/[C@H](O)C/C=C\\C/C=C\\CCC(=O)O", "note": "[PD1, (4Z,7Z,10R,11E,13E,15Z,17S,19Z)-10,17-dihydroxydocosa-4,7,11,13,15,19-hexaenoic acid]", "values": [{"measurement": "release of the prototypic myokine interleukin-6 (IL-6)", "result": "ineffective"}]}
